In patent publication US20130123215A1, “2,5-DIOXOIMIDAZOLIDIN-1-YL-3-PHENYLUREA DERIVATIVES AS FORMYL PEPTIDE RECEPTOR LIKE-1 (FPRL-1) RECEPTOR MODULATORS” (ALLERGAN, INC., priority 2011, published 2013):

What follows are molecules tested against T1, FPRL-1 (Homo sapiens, UniProt P25090) (assay: FPRL-1 Ga16-CHO compound-induced calcium activity (FLIPR Tetra)). Conditions: CHO-Gα16 cells stably expressing FPRL1; calcium activity on FLIPR Tetra; tested at 0.61 to 10,000 nM; read-out: FPRL-1 Ga16-CHO EC50.
T1 construct: expressed in transfected cells; host or cells: CHO-Gα16 cells stably expressing FPRL1
T1 sequence (P25090 1-351): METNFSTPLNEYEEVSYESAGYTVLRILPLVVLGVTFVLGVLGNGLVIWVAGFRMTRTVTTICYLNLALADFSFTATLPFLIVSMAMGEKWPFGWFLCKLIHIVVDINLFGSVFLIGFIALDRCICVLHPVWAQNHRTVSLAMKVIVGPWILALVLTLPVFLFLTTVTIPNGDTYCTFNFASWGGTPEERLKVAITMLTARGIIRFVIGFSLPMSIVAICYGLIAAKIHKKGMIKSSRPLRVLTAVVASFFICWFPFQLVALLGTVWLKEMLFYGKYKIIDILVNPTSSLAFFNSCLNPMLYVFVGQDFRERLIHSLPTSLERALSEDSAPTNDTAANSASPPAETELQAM
Assay type: cell-based
Description: HEK-Gα16 and CHO-Gα16 cells stably expressing FPRL1 were cultured in (F12, 10% FBS, 1% PSA, 400 μg/ml geneticin and 50 μg/ml hygromycin) and HEK-Gqi5 cells stable expressing FPR1 were cultured in (DMEM high glucose, 10% FBS, 1% PSA, 400 μg/ml geneticin and 50 μg/ml hygromycin). In general, the day before the experiment, 18,000 cells/well were plated in a 384-well clear bottom poly-d-lysine coated plate. The following day the screening compound-induced calcium activity was assayed on the FLIPR^Tetra. The drug plates were prepared in 384-well microplates using the EP3 and the MultiPROBE robotic liquid handling systems. Compounds were tested at concentrations ranging from 0.61 to 10,000 nM. Results are expressed as EC50 (nM) and efficacy values.

| Compound | EC50 |
| --- | --- |
| O=C(Nc1ccc(Br)cc1)NN1C(=O)NC2(CCCCC2)C1=O [Compound 14, 1-(4-Bromophenyl)-3-(2,4-dioxo-1,3-diazaspiro[4.5]decan-3-yl)urea] | 13.6 nM |
| CCC1(C(C)C)NC(=O)N(NC(=O)Nc2ccc(Br)cc2F)C1=O (centres unmarked) [Compound 20, 1-(4-Bromo-2-fluorophenyl)-3-(4-ethyl-4-isopropyl-2,5-dioxoimidazolidin-1-yl)urea] | 6.3 nM |
| CC(C)C1(CC(=O)O)NC(=O)N(NC(=O)Nc2ccc(Br)cc2)C1=O (centres unmarked) [Compound 81, 2-(1-(3-(4-Bromophenyl)ureido)-4-isopropyl-2,5-dioxoimidazolidin-4-yl)acetic acid] | 459 nM |
| CC1(CCc2ccccc2C(=O)O)NC(=O)N(NC(=O)Nc2ccc(Br)cc2)C1=O (centres unmarked) [Compound 78, 2-(2-(1-(3-(4-Bromophenyl)ureido)-4-methyl-2,5-dioxoimidazolidin-4-yl)ethyl)benzoic acid] | 17.2 nM |
| CCc1ccc2[nH]c(C3(C)NC(=O)N(c4ccc(Br)cc4)C3=O)cc2c1 (centres unmarked) [3-(4-Bromophenyl)-5-(5-ethyl-1H-indol-2-yl)-5-methylimidazolidine-2,4-dione] | 2590 nM |
| CCC1(CC)NC(=O)N(NC(=O)Nc2ccc(OC)cc2)C1=O [Compound 3, 1-(4-Methoxyphenyl)-3-(4,4-diethyl-2,5-dioxoimidazolidin-1-yl)urea] | 194 nM |
| O=C(Nc1ccc(Br)cc1)NN1C(=O)NC2(CCc3ccccc3C2)C1=O (centres unmarked) [Compound 27, 1-(4-Bromophenyl)-3-(2,5-dioxo-3′,4′-dihydro-1H,1′H-spiro[imidazolidine-4,2′-naphthalen]-1-yl)urea] | 53.5 nM |
| CC(C)C1(CC(=O)NCCC(=O)O)NC(=O)N(NC(=O)Nc2ccc(Br)cc2)C1=O (centres unmarked) [Compound 93, 3-(2-(1-(3-(4-Bromophenyl)ureido)-4-isopropyl-2,5-dioxoimidazolidin-4-yl)acetamido)propanoic acid] | 5.16 nM |
| CCC1(CC)NC(=O)N(NC(=O)Nc2ccc(Cl)cc2)C1=O [Compound 2, 1-(4-Chlorophenyl)-3-(4,4-diethyl-2,5-dioxoimidazolidin-1-yl)urea] | 27 nM |
| CC(C)C1(CCO)NC(=O)N(NC(=O)Nc2ccc(Br)cc2)C1=O (centres unmarked) [Compound 75, 1-(4-Bromophenyl)-3-(4-(2-hydroxyethyl)-4-isopropyl-2,5-dioxoimidazolidin-1-yl)urea] | 21.2 nM |
| O=C(Nc1ccc(Br)cc1F)NN1C(=O)NC2(CCCCC2)C1=O [Compound 15, 1-(4-Bromo-2-fluorophenyl)-3-(2,4-dioxo-1,3-diazaspiro[4.5]decan-3-yl)urea] | 233 nM |
| CC(C)C1(CC(=O)O)NC(=O)N(NC(=O)Nc2ccc(Br)cc2F)C1=O (centres unmarked) [Compound 82, 2-(1-(3-(4-Bromo-2-fluorophenyl)ureido)-4-isopropyl-2,5-dioxoimidazolidin-4-yl)acetic acid] | 713 nM |
| CCC1(CC)NC(=O)N(NC(=O)Nc2ccc(Cl)cc2F)C1=O [Compound 16, 1-(4-Chloro-2-fluorophenyl)-3-(4,4-diethyl-2,5-dioxoimidazolidin-1-yl)urea] | 39 nM |
| CCC1(CC)NC(=O)N(NC(=O)Nc2ccc(C)cc2)C1=O [Compound 7, 1-(4-Methylphenyl)-3-(4,4-diethyl-2,5-dioxoimidazolidin-1-yl)urea] | 96 nM |
| CCC1(CC)NC(=O)N(NC(=O)Nc2ccc(C#N)cc2)C1=O [Compound 5, 1-(4-Cyanophenyl)-3-(4,4-diethyl-2,5-dioxoimidazolidin-1-yl)urea] | 1230 nM |
| CC1(CCc2ccco2)NC(=O)N(NC(=O)Nc2ccc(Br)cc2)C1=O (centres unmarked) [Compound 35] | 6.9 nM |
| CCC1(CC)NC(=O)N(NC(=O)Nc2ccc(Br)cc2F)C1=O [Compound 6, 1-(4-Bromo-2-fluorophenyl)-3-(4,4-diethyl-2,5-dioxoimidazolidin-1-yl)urea] | 15.6 nM |
| CC(C)C1(CC(=O)NC(CO)CO)NC(=O)N(NC(=O)Nc2ccc(Br)cc2)C1=O (centres unmarked) [2-[1-{[(4-Bromophenyl)carbamoyl]amino}-2,5-dioxo-4-(propan-2-yl)imidazolidin-4-yl]-N-(1,3-dihydroxypropan-2-yl)acetamide] | 16.2 nM |
| CC(C)C1(CO)NC(=O)N(NC(=O)Nc2ccc(Br)cc2)C1=O (centres unmarked) [Compound 74, 1-(4-Bromophenyl)-3-(4-(hydroxymethyl)-4-isopropyl-2,5-dioxoimidazolidin-1-yl)urea] | 2.65 nM |
| COC(=O)c1ccccc1CCC1(C)NC(=O)N(NC(=O)Nc2ccc(Br)cc2)C1=O (centres unmarked) [Compound 59, Methyl 2-(2-(1-(3-(4-bromophenyl)ureido)-4-methyl-2,5-dioxoimidazolidin-4-yl)ethyl)benzoate] | 28.9 nM |
| CC(C)C1(CC(=O)NCCO)NC(=O)N(NC(=O)Nc2ccc(Br)cc2)C1=O (centres unmarked) [Compound 84, 2-(1-(3-(4-Bromophenyl)ureido)-4-isopropyl-2,5-dioxoimidazolidin-4-yl)-N-(2-hydroxyethyl)acetamide] | 16.2 nM |

The remaining lines, values ahead:

| EC50 | Compound |
| --- | --- |
| 204 nM | COC(=O)c1ccc(CCC2(C)NC(=O)N(NC(=O)Nc3ccc(Br)cc3)C2=O)cc1 (centres unmarked) [Compound 58, Methyl 4-(2-(1-(3-(4-Bromophenyl)ureido)-4-methyl-2,5-dioxoimidazolidin-4-yl)ethyl)benzoate] |
| 86 nM | CC1(CCc2cccs2)NC(=O)N(NC(=O)Nc2ccc(Br)cc2F)C1=O (centres unmarked) [Compound 44] |
| 2.9 nM | CC1(CCc2cccc(O)c2)NC(=O)N(NC(=O)Nc2ccc(Br)cc2F)C1=O (centres unmarked) [Compound 53, 1-(4-Bromo-2-fluorophenyl)-3-(4-(3-hydroxyphenethyl)-4-methyl-2,5-dioxoimidazolidin-1-yl)urea] |
| 28.6 nM | CC1(CCc2ccncc2)NC(=O)N(NC(=O)Nc2ccc(Br)cc2F)C1=O (centres unmarked) [Compound 55] |
| 7.4 nM | CC1(CCc2ccc(O)c(F)c2)NC(=O)N(NC(=O)Nc2ccc(Br)cc2F)C1=O (centres unmarked) [Compound 48, 1-(4-Bromo-2-fluorophenyl)-3-{4-[2-(3-fluoro-4-hydroxyphenyl)ethyl]-4-methyl-2,5-dioxoimidazolidin-1-yl}urea] |
| < 2 nM | CCC1(CCc2ccccc2)NC(=O)N(NC(=O)Nc2ccc(Br)cc2F)C1=O (centres unmarked) [Compound 29, 1-(4-Bromo-2-fluorophenyl)-3-(4-ethyl-2,5-dioxo-4-(phenethyl)imidazolidin-1-yl)urea] |
| 1380 nM | CC1(CCc2ccc(Cl)cc2)NC(=O)N(NC(=O)Nc2ccc(Br)cc2F)C1=O (centres unmarked) [Compound 34] |
| 118 nM | CC1(CCc2ccc(F)cc2)NC(=O)N(NC(=O)Nc2ccc(Br)cc2F)C1=O (centres unmarked) [Compound 40, 1-(4-Bromo-2-fluorophenyl)-3-(4-(4-fluorophenethyl)-4-methyl-2,5-dioxoimidazolidin-1-yl)urea] |
| 11.1 nM | CC1(CCc2cccc(F)c2)NC(=O)N(NC(=O)Nc2ccc(Br)cc2)C1=O (centres unmarked) [Compound 41, 1-(4-Bromophenyl)-3-(4-(3-fluorophenethyl)-4-methyl-2,5-dioxoimidazolidin-1-yl)urea] |
| 14 nM | CC1(CCc2ccccc2F)NC(=O)N(NC(=O)Nc2ccc(Br)cc2)C1=O (centres unmarked) [Compound 37, 1-(4-Bromophenyl)-3-(4-(2-fluorophenethyl)-4-methyl-2,5-dioxoimidazolidin-1-yl)urea] |
| 5.8 nM | CC1(CCc2ccccc2O)NC(=O)N(NC(=O)Nc2ccc(Br)cc2F)C1=O (centres unmarked) [Compound 51, 1-(4-Bromo-2-fluorophenyl)-3-(4-(2-hydroxyphenethyl)-4-methyl-2,5-dioxoimidazolidin-1-yl)urea] |
| 105 nM | CC(C)CC1(CCc2ccccc2)NC(=O)N(NC(=O)Nc2ccc(Br)cc2F)C1=O (centres unmarked) [Compound 32] |
| 7.9 nM | CC1(CCc2ccc(O)c(F)c2)NC(=O)N(NC(=O)Nc2ccc(Br)cc2)C1=O (centres unmarked) [Compound 47, 1-(4-Bromophenyl)-3-(4-(3-fluoro-4-hydroxyphenethyl)-4-methyl-2,5-dioxoimidazolidin-1-yl)urea] |
| 52.1 nM | CC1(COc2ccccc2)NC(=O)N(NC(=O)Nc2ccc(Br)cc2F)C1=O (centres unmarked) [Compound 28, 1-(4-Bromo-2-fluorophenyl)-3-(4-methyl-2,5-dioxo-4-(phenoxymethyl)imidazolidin-1-yl)urea] |

Same assay, conditions: FPRL-1 Ga16-CHO EC50, CHO-Gα16 cells stably expressing FPRL1; calcium activity on FLIPR Tetra; tested at 0.61 to 10,000 nM

| Compound | EC50 |
| --- | --- |
| CCC1(CCc2ccccc2C(=O)OC)NC(=O)N(NC(=O)Nc2ccc(Br)cc2)C1=O (centres unmarked) [Compound 60, Methyl 2-(2-(1-(3-(4-bromophenyl)ureido)-4-ethyl-2,5-dioxoimidazolidin-4-yl)ethyl)benzoate] | 10.3 nM |
| CCOP(=O)(O)CNC(=O)CC1(C(C)C)NC(=O)N(NC(=O)Nc2ccc(Br)cc2)C1=O (centres unmarked) [Compound 89, Ethyl hydrogen((2-(1-(3-(4-bromophenyl)ureido)-4-isopropyl-2,5-dioxoimidazolidin-4-yl)acetamido)methyl)phosphonate] | 313 nM |
| CCOP(=O)(CNC(=O)CC1(C(C)C)NC(=O)N(NC(=O)Nc2ccc(Br)cc2)C1=O)OCC (centres unmarked) [Compound 86, Diethyl((2-(1-(3-(4-bromophenyl)ureido)-4-isopropyl-2,5-dioxoimidazolidin-4-yl)acetamido)methyl)phosphonate] | 272 nM |
